From patent US12268707B2, “Treatment for coronavirus infection and associated cytokine toxicity” (priority 2020, dated 2025)
“And” between values parts separate entries of the source, which are not always exact repeats. Equal values may be shown once.

Key:
SARS-CoV-2 = type: cell-based
[1] = fraction of heparin's anticoagulant properties; cited from earlier work
[2] = high doses for extended periods; cited from earlier work
[3] = administered orally, intravenously or subcutaneously; cited from earlier work

pentosan polysulfate [PPS]
reduction in virus infectivity (TCID50/mL) (SARS-CoV-2): almost four orders of magnitude reduction | virus replication in Calu3 cells (SARS-CoV-2): inhibited much more strongly | anticoagulant properties relative to heparin [1]: about 1/15 and 1/15 | side effects [2]: only limited side effects | bioavailability [3]: bioavailable
